This note sets out measurements from patent US11608309B2 (THE RESEARCH FOUNDATION FOR THE STATE UNIVERSITY OF NEW YORK, priority 2009, dated 2023).

One series addresses purified human PMN MMP-8 (Homo sapiens (Human), UniProt P22894). Kind of series: MMP-8 inhibition in vitro, synthetic octapeptide substrate, tripeptide products by HPLC. The series is classed as biochemical.
A further series deals with human monocytes. Kind of series: Cytotoxicity in human monocytes (MTS). Type of series: cell-based. How it is done:
Briefly, human peripheral blood monocytes (HMs) were isolated from a leukocyte concentrate by density gradient centrifugation (Lymphoprep) and the isolated HMs cultured (2 h, 37° C.) to remove non-adherant cells. […] After incubation, the proinflammatory cytokines, TNFα, IL-1β, MCP-1 and IL-6 were measured in the conditioned media by ELISA and cytotoxicity was assessed by measuring the absorbance (490 ran) of formazan produced by reduction of MTS. The HMs alone ±0.1-0.5% DMSO produced minimal levels of these pro-inflammatory cytokines. However, addition of 100 ng/ml or 10 μg/ml of LPS both dramatically stimulated cytokine production.

Series [1] concerns LPS-challenged human monocytes. Kind of series: Cytokine and growth factor levels in LPS-challenged human monocytes (Luminex multiplex). The series is classed as cell-based. Conditions: 2 μM. How it is done: The cytokine levels were measured by Luminex multiplex, a method that allows the simultaneous measurement of different biological markers.
For series [2], the target named is MMP-9 (human leukocyte gelatinase) (Homo sapiens (Human), UniProt P14780). Nature of the series: MMP-9 inhibition in vitro, octapeptide/HPLC. Type of series: biochemical.
MMP-9 (human leukocyte gelatinase), sequence (P14780 94-707): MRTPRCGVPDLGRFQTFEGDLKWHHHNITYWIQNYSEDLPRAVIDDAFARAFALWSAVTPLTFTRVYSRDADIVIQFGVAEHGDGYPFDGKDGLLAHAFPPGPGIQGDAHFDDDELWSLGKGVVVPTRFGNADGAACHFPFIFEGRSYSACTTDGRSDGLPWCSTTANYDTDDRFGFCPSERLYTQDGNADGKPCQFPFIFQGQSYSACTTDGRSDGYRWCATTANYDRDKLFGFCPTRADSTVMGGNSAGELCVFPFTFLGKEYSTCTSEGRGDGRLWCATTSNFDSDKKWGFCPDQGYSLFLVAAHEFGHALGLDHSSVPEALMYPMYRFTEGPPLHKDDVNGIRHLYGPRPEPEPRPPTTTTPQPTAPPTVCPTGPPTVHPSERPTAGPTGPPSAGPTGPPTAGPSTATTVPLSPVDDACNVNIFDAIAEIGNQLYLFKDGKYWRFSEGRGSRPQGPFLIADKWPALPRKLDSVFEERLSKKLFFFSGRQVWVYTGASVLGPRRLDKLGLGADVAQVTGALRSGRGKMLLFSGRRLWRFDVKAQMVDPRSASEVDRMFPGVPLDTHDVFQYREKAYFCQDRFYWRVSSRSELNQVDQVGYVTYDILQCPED
Series [3] can be described thus: Hyperglycemia in streptozotocin-diabetic rats, 1-week oral treatment. Type of series: in vivo, rat. Conditions: 100 mg/kg oral once/day for 7 days. From the text: The purpose of the following was to establish an in vivo model of excessive collagen degradation to be used to test efficacy of the compounds of the subject invention. Male Sprague-Dawley rats (typically 300-400 gms of body weight), specific viral antibody free, were ordered from Charles River. Following general anesthesia via isoflurane anesthetic inhalation, diabetes was induced by an I.V. administration of streptozotocin (STZ) (50* mg/kg body weight) (Sigma Chemical Co., St Louis, Mo., USA) diluted in 0.9% citrated saline (pH 4.5), after 12 hours of fasting. After the streptozotocin injection, the animals were given free access to water and food. […] In this test, the test-paper color changes to dark brown which indicates glycosuria.
The latter assays were carried out using Western blot analysis with monoclonal antibodies to MMP-8.

Series [4] is described as follows: Diabetic adverse events in rats. The series is classed as in vivo, rat. Conditions: 1-week oral treatment, n = 6.
Another series has as its target IL-1β (Rattus norvegicus (Rat), UniProt Q63264). Nature of the series: Gingiva IL-1β by ELISA in diabetic rats. Type of series: in vivo. The settings on record: lower oral dose (100 mg/kg), 3 weeks. How it is done: (§1) At the end of the treatment protocol, the rats were sacrificed, blood samples were collected, and whole skin (except over limbs) and gingiva were dissected (the skin, because of ample quantities of tissue were analyzed for each rat separately; the gingiva, because of the tiny amounts that could be harvested per rat, were pooled for each experimental group, as prescribed previously for tetracycline studies (30). In addition, the jaw bones were collected, defleshed, and bone loss around the teeth analyzed morphometrically as described previously (42, 43).
In general terms: ELISA stands for enzyme-linked immunosorbent assay.

The nature of series [5]: Alveolar bone loss in diabetic rats. The series is classed as in vivo, rat. Conditions: very high oral dose (500 mg/kg), 3 weeks. How it is done: as §1
Alveolar bone loss (the signature pathologic event in inflammatory periodontal disease) was assessed in the defleshed jaws of the compound 1-treated (TX) and untreated rats. Briefly, little or no difference in bone loss was seen comparing the untreated non-diabetic and untreated diabetic rat jaws (enhanced bone loss has been observed in diabetic rats previously when the duration of the hyperglycemia was greater than the 3-week experiment described herein).

Another series addresses MMP-2 (Rattus norvegicus (Rat), UniProt P33436). Nature of the series: Skin MMP-2 by ELISA in diabetic rats. The series is classed as in vivo. Conditions: both low and high doses. How it is done:
as §1

The subject of series [6] is neonatal rat ventricular myocytes. Kind of series: Hydrogen peroxide induced LDH release. Type of series: cell-based. Conditions: H2O2 100 μM, compound 10 μM. How it is done: Neonatal rat ventricular myocytes, serum starved for 24 h, were treated with the inhibitors 1 h prior to the addition of 100 μM of hydrogen peroxide (Sigma). LDH release in the conditioned media was quantified using CytoTox-ONE Homogeneous Membrane Integrity Assay reagent (Promega) at the indicated time points.
(LDH leaks from cells whose membrane has failed.)

The test system is the same in series [7]. Kind of series: Doxorubicin mediated caspase-3 activity. Type of series: cell-based. Conditions: doxorubicin 500 nM, 6 h and 24 h, compounds 10 μM. The procedure:
Neonatal rat ventricular myocytes, serum starved for 24 h, were treated with the inhibitors 1 h prior to the addition of 500 nM of doxorubicin (Sigma). At the indicated time points cells were washed with ice-cold phosphate buffered saline and lysed using RIPA buffer (Pierce) containing protease and phosphatase inhibitors (Sigma). Caspase-3 activity in the cell lysates was measured by incubation with 7-amino-4-trifluoromethyl coumarin (Enzo).

For series [8], the system named is PC-3 human prostate cancer cells. Kind of series: MMP-9 in conditioned media of PC-3 cells (gelatin zymography, Western blot). The series is classed as cell-based. Conditions: 10 μM and 20 μM, 48 hr. How it is done:
Compound 1 was evaluated in a cell culture model of cancer. […] After the incubation, aliquots of the conditioned media were assayed for MMP-9 (gelatinase B) by either of two techniques, gelatin zymoyraphy (in the presence of 2 or 10 mMCa^++) and Western blot (both assays used purified MMP-9, 92 kDa gelatinase, as a standard).
For orientation: Immunoblotting shows a protein as a band on a membrane.

A short description of series [9]: Solubility in aqueous solutions. Type of series: physicochemical.
Another series concerns TNF-α. Nature of the series: TNF-α production by LPS-stimulated human monocytes (ELISA). The settings on record: 10 and 20 μM. The series is classed as cell-based. The procedure:
Briefly, human peripheral blood monocytes (HMs) were isolated from a leukocyte concentrate by density gradient centrifugation (Lymphoprep) and the isolated HMs cultured (2 h, 37° C.) to remove non-adherant cells. The adherent HMs were cultured for 18 h (1×10^6 cells/well, 24-well plates)±endotoxin (LPS)±different compounds dissolved in DMSO (the final concentration of DMSO in the RPMI serum-free culture media with Pen./Strep, antibiotics was no greater than 0.5%). After incubation, the proinflammatory cytokines, TNFα, IL-1β, MCP-1 and IL-6 were measured in the conditioned media by ELISA and cytotoxicity was assessed by measuring the absorbance (490 ran) of formazan produced by reduction of MTS. The HMs alone ±0.1-0.5% DMSO produced minimal levels of these pro-inflammatory cytokines. However, addition of 100 ng/ml or 10 μg/ml of LPS both dramatically stimulated cytokine production.

Structures are written as SMILES. Several values for one entry are separate records, joined by “and”; a condition that tells them apart may be missing. Equal entries are not always repeated.

One may read the IC50 as the midpoint of a concentration-inhibition curve.

purified human PMN MMP-8, sequence (P22894 101-467): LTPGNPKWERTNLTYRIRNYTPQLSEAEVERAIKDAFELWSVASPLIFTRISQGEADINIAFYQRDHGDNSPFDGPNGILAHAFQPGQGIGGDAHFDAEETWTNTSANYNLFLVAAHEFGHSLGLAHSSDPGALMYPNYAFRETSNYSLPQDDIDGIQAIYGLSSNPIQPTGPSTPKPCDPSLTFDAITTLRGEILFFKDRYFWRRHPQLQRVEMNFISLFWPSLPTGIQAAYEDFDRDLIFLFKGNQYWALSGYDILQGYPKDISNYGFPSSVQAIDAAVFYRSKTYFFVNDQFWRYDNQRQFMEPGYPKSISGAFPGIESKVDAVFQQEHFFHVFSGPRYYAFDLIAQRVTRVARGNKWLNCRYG

Take `c1cnc2c(c1)ccc1cccnc12` [1,10-phenanthroline, 1,10-O-phenanthroline]: on purified human PMN MMP-8 (read-out: IC50 against purified hMMP-8), the IC50 is 10 µM and 35 µM.
For the compound `COC(=O)C(C(=O)/C=C/c1ccc(O)c(OC)c1)C(=O)/C=C/c1ccc(O)c(OC)c1` [Compound 1, 1,7-Bis(4-hydroxy-3-methoxyphenyl)-4-methoxycarbonylhepta-1E,6E-dien-3,5-dione], the entries for the “Cytotoxicity Monocytes @ 5 h incubation” value with human monocytes (2 uM) and with human monocytes (10 uM) were 2 uM- 0% and 10 uM- 0%, respectively. Besides, the “Reduction of MCP-1, TNFα and VEGF levels” value in [1] was “potent in reducing”. In series [2], this compound registered an IC50 of 6 to 17 µM. In [3], the “Effect on severity of hyperglycemia (serum glucose)” value is recorded as “no effect”. The “Description of AEs” value in series [4] was “Minor inflamed sclera”. Further, the “Incidence of Adverse Events (AEs)” value in series [4] is given as 1/6. Moreover, the “Reduction of IL-1β in gingiva vs untreated diabetic” value on IL-1β is recorded as “about 18%”. Besides, the “Reduction in alveolar bone loss vs untreated groups” value in series [5] is “less effective”. Further, the “Reduction of elevated MMP-2 level in skin” value on MMP-2 turned out to be 28%. Also, the “Effect on LDH release” value in series [6] (24 h) is recorded as “less dramatic effect”. In addition, the “Modulation of doxorubicin mediated caspase-3 activity” value in [7] is reported as “None of the MMP inhibitors, including compound 1, negatively modulate caspase-3 activity”. Also, in series [8], the “Production and/or activity of MMP-9” value is reported as “inhibited the production and/or activity of MMP-9”. Also, in series [9], the Solubility entry is “more soluble than the insoluble natural product curcumin”.
`COC(=O)C(C(=O)/C=C/c1ccc(O)cc1)C(=O)/C=C/c1ccc(O)cc1` [Compound 3, 1,7-Bis(4-hydroxyphenyl)-4-methoxycarbonylhepta-1E,6E-dien-3,5-dione]: the “IC50 collagenase (MMP-8) activity” value against purified human PMN MMP-8 (Example 7 experiment, 37° C., 1 mM Ca++) was “more potent as a collagenase or MMP inhibitor than compound 1”. In [2], this compound showed an IC50 of 6 to 17 µM. In addition, the Solubility result in series [9] was “more soluble in aqueous solutions than compound 1”.
`COc1cc(/C=C/C(=O)CC(=O)/C=C/c2ccc(N(C)C)cc2)ccc1O` [Compound 4]: in [2], the IC50 was 6 to 17 µM.
For the compound `COc1cc(/C=C/C(=O)CC(=O)/C=C/c2ccc(O)c(OC)c2)ccc1O` [Curcumin, diferuloylmethane], the “Cytotoxicity Monocytes @ 5 h incubation” value in the series with human monocytes (10 uM) amounted to 10 uM- 0%. Moreover, the “Cytotoxicity Monocytes @ 18 h incubation” value with human monocytes (10 uM, 18 h) was 10 uM- 0%. Also, the “Cytotoxicity associated with TNFα inhibitory effect” value with human monocytes (50 and 100 μM, some precipitation in cell culture) is listed as “significant cytotoxicity”. Further, the “Effect on TNFα production by endotoxin-stimulated human monocytes” value in the series with TNF-α was “no effect”. Besides, the Solubility entry in series [9] is recorded as “insoluble”.
Regarding `CNC(=O)[C@H](Cc1c[nH]c2ccccc12)NC(=O)[C@@H](CC(=O)NO)CC(C)C` [GM-6001], the “Effect on LDH release” value in series [6] is “did not affect LDH release”.
`CCOCOC[C@H](C[C@H](C)C(=O)NO)NC(=O)c1ccc(Oc2ccccc2)cc1` [ONO-4817]: the “Effect on LDH release” value in series [6] is “did not affect LDH release”.
